Reference: patent publication US11142527B2, “Dihydropyrimidine compounds and uses thereof in medicine” (SUNSHINE LAKE PHARMA CO., LTD., priority 2017, dated 2021)

Experiments:
[1] = Cytotoxicity test with CellTiter Glo; type: cell-based; settings: human, HepG2.2.15 cells, highest concentration 150 μM, read-out: CC50 values of the compounds of the invention
Experimental: Test 2: Cytotoxicity and Selectivity Index
Methods of Testing Cytotoxicity and Selectivity Index
The serial diluted compound was added to a 384 wells plate at 50 μL HepG2.2.15 cell per well (3000 cells per well), the highest final concentration in the experiment is 150 μM (200 fold dilution). The plate was cultured at 37° C. in an incubator with CO2 for 4 days, and cytotoxicity of the compound was detected using CellTiter Glo agent.
The cytotoxicity of the compound was calculated using the following formulate, cytotoxicity (%)=100−(detection value/mean of DMSO control wells values×100) CC50 values were calculated by a four parametric nonlinear regression model using Graphpad Prism 5 software to manage concentration−cytotoxicity (%).

[2] = tested on: HBV; experiment: Test of anti HBV activity in vitro (viral DNA by qPCR); type: cell-based; settings: Hepatitis B virus; HepG2.2.15 cells, viral DNA in cell culture supernatant by qPCR; read-out: EC50 values of the compound of the invention on viral replication
How it was run: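 HepG2.2.15 cells (integrated HBV genome) were grown to confluence, then treated with compound in 4-fold dilutions from 4 μM final (0.5% DMSO). Secreted viral DNA in supernatant was quantified by SYBR qPCR against an HBV plasmid standard curve; EC50 from four-parameter nonlinear regression of concentration versus copy number.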

SMILES: COC(=O)C1=C(CN2CCN3C(=O)N(c4ccc(-c5ccc(C(=O)O)c(F)c5)c(F)c4)C[C@@H]3C2)NC(c2nccs2)=N[C@H]1c1ccc(F)cc1Cl [Example 34, 4′-((S)-7-(((R)-6-(2-chloro-4-fluorophenyl)-5-(methoxycarbonyl)-2-(thiazol-2-yl)-3,6-dihydropyrimidin-4-yl)methyl)-3-oxohexahydroimidazo[1,5-a]pyrazin-2(3H)-yl)-2′,3-difluoro-[1,1′-diphenyl]-4-carboxylic acid]
- CC50 at 4 days [1]: > 150000 nM
- EC50 [2]: 7 nM

SMILES: COC(=O)C1=C(CN2CCN3C(=O)N(c4ccc(-c5ccc(C(=O)O)cc5)c(F)c4)C[C@@H]3C2)NC(c2nccs2)=N[C@H]1c1ccc(F)cc1Cl [Example 35, 4′-((S)-7-(((R)-6-(2-chloro-4-fluorophenyl)-5-(methoxycarbonyl)-2-(thiazol-2-yl)-3,6-dihydropyrimidin-4-yl)methyl)-3-oxohexahydroimidazo[1,5-a]pyrazin-2(3H)-yl)-2′-fluoro-[1,1′-diphenyl]-4-carboxylic acid]
- CC50 at 4 days [1]: > 150000 nM
- EC50 [2]: 7 nM

SMILES: COC(=O)C1=C(CN2CCN3C(=O)N(c4nc(-c5ccc(CC(C)(C)C(=O)O)cc5)cs4)C[C@@H]3C2)NC(c2nccs2)=N[C@H]1c1ccc(F)cc1Cl [Example 36, 3-(4-(2-((S)-7-(((R)-6-(2-chloro-4-fluorophenyl)-5-(methoxycarbonyl)-2-(thiazol-2-yl)-3,6-dihydropyrimidin-4-yl)methyl)-3-oxohexahydroimidazo[1,5-a]pyrazin-2(3H)-yl)thiazol-4-yl)phenyl)-2,2-dimethylprop ionic acid]
- CC50 at 4 days [1]: > 150000 nM
- EC50 [2]: 22 nM

SMILES: COC(=O)C1=C(CN2CCN3C(=O)N(CC#Cc4ccc(CO)cc4)C[C@@H]3C2)NC(c2nccs2)=N[C@H]1c1ccc(F)cc1Cl [Example 37, (R)-methyl 4-(2-chloro-4-fluorophenyl)-6-(((S)-2-(3-(4-(hydroxymethyl)phenyl)prop-2-yn-1-yl)-3-oxohexahydroimidazo[1,5-a]pyrazin-7(1H)-yl)methyl)-2-(thiazol-2-yl)-1,4-dihydropyrimidine-5-carboxylate]
- CC50 at 4 days [1]: > 150000 nM
- EC50 [2]: 12.1 nM

SMILES: COC(=O)C1=C(CN2CCN3C(=O)N(CC#Cc4ccc(C(C)(C)O)cc4)C[C@@H]3C2)NC(c2nccs2)=N[C@H]1c1ccc(F)cc1Cl [Example 38, (R)-methyl 4-(2-chloro-4-fluorophenyl)-6-(((S)-2-(3-(4-(2-hydroxyprop-2-yl)phenyl)-2-propyn-1-yl)-3-oxohexahydroimidazo[1,5-a]pyrazin-7(1H)-yl)methyl)-2-(thiazol-2-yl)-1,4-dihydropyrimidine-5-carboxylate]
- CC50 at 4 days [1]: > 150000 nM
- EC50 [2]: 7.1 nM

SMILES: COC(=O)C1=C(CN2CCN3C(=O)N(CC#Cc4ccc(S(C)(=O)=O)cc4)C[C@@H]3C2)NC(c2nccs2)=N[C@H]1c1ccc(F)cc1Cl [Example 41, (R)-methyl 4-(2-chloro-4-fluorophenyl)-6-(((S)-2-(3-(4-(methylsulfonyl)phenyl)-2-propyn-1-yl)-3-oxohexahydroimidazo[1,5-a]pyrazin-7(1H)-yl)methyl)-2-(thiazol-2-yl)-1,4-dihydropyrimidine-5-carboxylate]
- CC50 at 4 days [1]: > 150000 nM
- EC50 [2]: 5.1 nM

SMILES: COC(=O)C1=C(CN2CCN3C(=O)N(CC#Cc4ccc(C(=O)N(C)C)cc4)C[C@@H]3C2)NC(c2nccs2)=N[C@H]1c1ccc(F)cc1Cl [Example 42, (R)-methyl 4-(2-chloro-4-fluorophenyl)-6-(((S)-2-(3-(4-(dimethylcarbamoyl)phenyl)prop-2-yn-1-yl)-3-oxohexahydroimidazo[1,5-a]pyrazin-7(1H)-yl)methyl)-2-(thiazol-2-yl)-1,4-dihydropyrimidine-5-carboxylate]
- CC50 at 4 days [1]: > 150000 nM
- EC50 [2]: 8 nM

SMILES: COC(=O)C1=C(CN2CCN3C(=O)N(CC#Cc4ccc(S(=O)(=O)N(C)C)cc4)C[C@@H]3C2)NC(c2nccs2)=N[C@H]1c1ccc(F)cc1Cl [Example 43, (R)-methyl 4-(2-chloro-4-fluorophenyl)-6-(((S)-2-(3-(4-(N,N-dimethylaminosulfonyl)phenyl)prop-2-yn-1-yl)-3-oxohexahydroimidazo[1,5-a]pyrazin-7(1H)-yl)methyl)-2-(thiazol-2-yl)-1,4-dihydropyrimidine-5-carboxylate]
- CC50 at 4 days [1]: > 150000 nM
- EC50 [2]: 7.2 nM

SMILES: COC(=O)C1=C(CN2CCN3C(=O)N(CC#Cc4ccc(C#N)cc4)C[C@@H]3C2)NC(c2nccs2)=N[C@H]1c1ccc(F)cc1Cl [Example 44, (R)-methyl 4-(2-chloro-4-fluorophenyl)-6-(((S)-2-(3-(4-cyanophenyl)prop-2-yn-1-yl)-3-oxohexahydroimidazo[1,5-a]pyrazin-7(1H)-yl)methyl)-2-(thiazol-2-yl)-1,4-dihydropyrimidine-5-carboxylate]
- CC50 at 4 days [1]: > 150000 nM
- EC50 [2]: 3.6 nM

SMILES: COC(=O)C1=C(CN2CCN3C(=O)N(CC#Cc4c(C)cc(C#N)cc4C)C[C@@H]3C2)NC(c2nccs2)=N[C@H]1c1ccc(F)cc1Cl [Example 48, (R)-methyl 4-(2-chloro-4-fluorophenyl)-6-(((S)-2-(3-(4-cyano-2,6-dimethylphenyl)-2-propynyl)-3-oxohexahydroimidazo[1,5-a]pyrazin-7(1H)-yl)methyl)-2-me (thiazol-2-yl)-1,4-dihydropyrimidine-5-carboxylate]
- CC50 at 4 days [1]: > 150000 nM
- EC50 [2]: 6.3 nM

SMILES: COC(=O)C1=C(CN2CCN3C(=O)N(CCC#Cc4ccc(C(=O)O)cc4)C[C@@H]3C2)NC(c2nccs2)=N[C@H]1c1ccc(F)cc1Cl [Example 54, 4-(4-((S)-7-(((R)-6-(2-chloro-4-fluorophenyl)-5-(methoxycarbonyl)-2-(thiazol-2-yl)-3,6-dihydropyrimidin-4-yl)methyl)-3-oxohexahydroimidazo[1,5-a]pyrazin-2(3H)-yl)but-1-yn-1-yl)benzoic acid]
- CC50 at 4 days [1]: > 150000 nM
- EC50 [2]: 61.3 nM

SMILES: COC(=O)C1=C(CN2CCN3C(=O)N(c4ccc(Oc5ccc(C(=O)N6CCOCC6)cc5)cc4)C[C@@H]3C2)NC(c2nccs2)=N[C@H]1c1ccc(F)cc1Cl [Example 56, (R)-methyl 4-(2-chloro-4-fluorophenyl)-6-(((S)-2-(4-(4-(morpholine-4-carbonyl)phenoxy)phenyl)-3-oxohexahydroimidazo[1,5-a]pyrazin-7(1H)-yl)methyl)-2-(thiazol-2-yl)-1,4-dihydropyrimidine-5-carboxylate]
- CC50 at 4 days [1]: > 150000 nM
- EC50 [2]: 12.4 nM

SMILES: COC(=O)C1=C(CN2CCN3C(=O)N(c4ccc(Oc5ccc(C(=O)N6CCCC6(F)F)cc5)cc4)C[C@@H]3C2)NC(c2nccs2)=N[C@H]1c1ccc(F)cc1Cl [Example 57, (R)-methyl 4-(2-chloro-4-fluorophenyl)-6-(((S)-2-(4-(4-(2,2-difluoropyrrolidine-1-carbonyl)phenoxy)phenyl)-3-oxohexahydroimidazo[1,5-a]pyrazin-7(1H)-yl)methyl)-2-(thiazol-2-yl)-1,4-dihydropyrimidine-5-carboxylate]
- CC50 at 4 days [1]: > 150000 nM
- EC50 [2]: 28.1 nM

SMILES: COC(=O)C1=C(CN2CCN3C(=O)N(c4ccc(Oc5ccc(C(=O)N6CCC(CO)CC6)cc5)cc4)C[C@@H]3C2)NC(c2nccs2)=N[C@H]1c1ccc(F)cc1Cl [Example 60, (R)-methyl 4-(2-chloro-4-fluorophenyl)-6-(((S)-2-(4-(4-(4-(hydroxymethyl)piperidine-1-carbonyl)phenoxy)phenyl)-3-oxohexahydroimidazo[1,5-a]pyrazin-7(1H)-yl)methyl)-2-(thiazol-2-yl)-1,4-dihydropyrimidine-5-carboxylate]
- CC50 at 4 days [1]: > 150000 nM
- EC50 [2]: 32.3 nM

SMILES: COC(=O)C1=C(CN2CCN3C(=O)N(c4ccc(Oc5ccc(C(=O)N6CC(O)C6)cc5)cc4)C[C@@H]3C2)NC(c2nccs2)=N[C@H]1c1ccc(F)cc1Cl [Example 61, (R)-methyl 4-(2-chloro-4-fluorophenyl)-6-(((S)-2-(4-(4-(3-hydroxyazetidine-1-carbonyl)phenoxy)phenyl)-3-oxohexahydroimidazo[1,5-a]pyrazin-7(1H)-yl)methyl)-2-(thiazol-2-yl)-1,4-dihydropyrimidine-5-carboxylate]
- CC50 at 4 days [1]: > 150000 nM
- EC50 [2]: 15 nM

SMILES: COC(=O)C1=C(CN2CCN3C(=O)N(c4ccc(Oc5ccc(C(=O)N(CCO)Cc6ccccc6)cc5)cc4)C[C@@H]3C2)NC(c2nccs2)=N[C@H]1c1ccc(F)cc1Cl [Example 63, (R)-methyl 6-(((S)-2-(4-(4-(benzyl(2-hydroxyethyl)carbamoyl)phenoxy)phenyl)-3-oxohexahydroimidazo[1,5-a]pyrazin-7(1H)-yl)methyl)-4-(2-chloro-4-fluorophenyl)-2-(thiazol-2-yl)-1,4-dihydropyrimidine-5-carboxylate]
- CC50 at 4 days [1]: > 150000 nM
- EC50 [2]: 27.6 nM

SMILES: COC(=O)C1=C(CN2CCN3C(=O)N(c4ccc(Oc5ccc(C(=O)N(CCO)CCO)cc5)cc4)C[C@@H]3C2)NC(c2nccs2)=N[C@H]1c1ccc(F)cc1Cl [Example 64, (R)-methyl 6-(((S)-2-(4-(4-(bis(2-hydroxyethyl)carbamoyl)phenoxy)phenyl)-3-oxohexahydroimidazo[1,5-a]pyrazin-7(1H)-yl)methyl)-4-(2-chloro-4-fluorophenyl)-2-(thiazol-2-yl)-1,4-dihydropyrimidine-5-carboxylate]
- CC50 at 4 days [1]: > 150000 nM
- EC50 [2]: 24.9 nM
